The values that follow come from patent publication US20100196321A1, “COMPOUNDS” (GLAXOSMITHKLINE LLC, priority 2009, published 2010).

Test [1] has as its system sub-genomic HCV NS3-NS5B replicon of genotype 1a in Huh-7 cells. Description: Replicon Luciferase Cell Based Assay, genotype 1a. Conditions: Hepatitis C virus, Huh-7, 48 hours. Set-up: species or system HCV genotype 1a. As for the experimental part: (§1) A 10 mM stock solution in DMSO of each test compound was further diluted in DMSO in the first row of a 384-well, V-bottom microplate, to give 100 times the top concentration of the required dilution series. Dilutions of compound were prepared in 1:3 serial dilutions from the first row onwards robotically. A robot was also used to transfer 0.5 μL volumes from each dilution well into wells of white 384-well assay plates (Nunc #164610). Control wells received 0.5 μL of DMSO alone. Plates were made in duplicate for measuring HCV replication and cytotoxicity in the replicon cell lines.
(§2) Suspensions were prepared from cultures of Huh-7 cells stably transfected with sub-genomic HCV NS3—NS5B replicons of either genotype 1b (the ET subline described by Pietschmann, T., Lohmann, V., Kaul, A., Krieger, N., Rinck, G., Rutter, G., Strand, D. & Bartenschlager, R., Journal of Virology, 2002, 76, 4008-4021) or genotype 1a linked to a firefly luciferase reporter gene. Monolayers nearing confluency were stripped from growth flasks with versene-trypsin solution and the cells re-suspended in assay medium comprising DMEM (Invitrogen #11965-092) supplemented with 5% v/v foetal calf serum, 1% v/v non-essential amino acids solution, 100 units/ml penicillin, 100 μg/ml streptomycin and 2 mM GlutaMAX-1. 50 μL of suspension containing 5,000 cells of either genotype 1b or genotype 1a luciferase replicon were added to all wells, except medium controls, of the assay plate with a Multidrop Combi (Thermo Scientific Corporation) and the plate incubated for 48 hours at 37° C. in a 5% CO2 atmosphere. A solution of Steady-Glo cytolytic buffer/luciferase substrate (Promega #E2550) was prepared according to the manufacturer's instructions, and 20 μL were added to each well with a Multidrop Combi. To measure cytotoxicity, a solution of CellTiter-Glo Luminescent Cell Viability Assay reagent (Promega #G7573) was prepared according to the manufacturer's instructions, and 20 ul were added to each well with a Multidrop Combi. The plates were then read for luminescence on an Envision Multilabel Reader (Perkin Elmer)
(§3) Potency: The luminescence values from all compound-free wells containing cells were averaged to obtain a positive control value. The mean luminescence value from the compound-free wells that had received no cells was used to provide the negative (background) control value. After the subtraction of the mean background from all values, the readings from wells at each compound concentration were expressed as a percentage of the positive control signal. The quantifiable and specific reduction of luciferase signal in the presence of a drug is a direct measure of replicon inhibition. The BioAssay application and XC50 module were used to plot the curve of percentage inhibition against compound concentration and derive the 50% inhibitory concentration (IC50) for the compound.

Test [2] concerns sub-genomic HCV NS3-NS5B replicon of genotype 1b (ET subline) in Huh-7 cells. Kind of test: Replicon Luciferase Cell Based Assay, genotype 1b. Set-up: species or system HCV genotype 1b. The conditions noted are these: Hepatitis C virus, Huh-7, 48 h, read-out: Genotype 1b (IC50 μM). On the procedure: as §1, §2, §3
For orientation: A replicon is a self-replicating genome or part of one, used to study replication in cells.

The term IC50 denotes the midpoint of a concentration-inhibition curve. Consider `CCN(CC)C(=O)N[C@H]1CCCCC/C=C\[C@@H]2C[C@@]2(C(=O)NS(=O)(=O)C2CC2)NC(=O)[C@@H]2C[C@@H](Oc3cc(-c4nc(C(F)(F)F)cs4)nc4c(Cl)c(OC)ccc34)CN2C1=O` [Example 29, Cycloprobanesulfonic acid [18-[8-chloro-7-methoxy-2-(4-trifluoromethyl-thiazol-2-yl)-quinolin-4-yloxy]-14-(3,3-diethyl-ureido)-2,15-dioxo-3,16-diaza-tricyclo[14.3.0.04,6]nonadec-7-ene-4-carbonyl]-amide], for which the IC50 in test [1] and in test [2] was less than 0.01 µM throughout.

For the molecule `COc1ccc2c(O[C@@H]3C[C@H]4C(=O)N[C@]5(C(=O)NS(=O)(=O)C6CC6)C[C@H]5/C=C\CCCCC[C@H](NC(=O)N5CCS(=O)(=O)CC5)C(=O)N4C3)cc(-c3nc(C(C)C)cs3)nc2c1C` [Example 12, (2R,6S,13aS,14aR,16aS)-N-(cyclopropylsulfonyl)-6-{[(1,1-dioxido-4-thiomorpholinyl)carbonyl]amino}-2-{[8-methyl-2-[4-(1-methylethyl)-1,3-thiazol-2-yl]-7-(methyloxy)-4-quinolinyl]oxy}-5,16-dioxo-1,2,3,6,7,8,9,10,11,13a,14,15,16,16a-tetradecahydrocyclopropa[e]pyrrolo[1,2-a][1,4]diazacyclopentadecine-14a(5H)-carboxamide], the IC50 in test [1] and in test [2] was less than 0.01 µM in each case.

For `CCN(CC)C(=O)N[C@H]1CCCCC/C=C\[C@@H]2C[C@@]2(C(=O)NS(=O)(=O)C2CC2)NC(=O)[C@@H]2C[C@@H](Oc3cc(-c4nc(C5CC5)cs4)nc4c(Cl)c(OC)ccc34)CN2C1=O` [Example 4, (2R,6S,13aS,14aR,16aS,Z)-2-(8-chloro-2-(4-cyclopropylthiazol-2-yl)-7-methoxyquinolin-4-yloxy)-N-(cyclopropylsulfonyl)-6-(3,3-diethylureido)-5,16-dioxo-1,2,3,5,6,7,8,9,10,11,13a,14,14a,15,16,16a-hexadecahydrocyclopropa[e]pyrrolo[1,2-a][1,4]diazacyclopentadecine-14a-carboxamide], the IC50 in test [1] and in test [2] was less than 0.01 µM in each case.

`CCN(CC)C(=O)N[C@H]1CCCCC/C=C\[C@@H]2C[C@@]2(C(=O)NS(=O)(=O)C2CC2)NC(=O)[C@@H]2C[C@@H](Oc3cc(-c4nc(C5CC5)cs4)nc4c(C)c(OC)ccc34)CN2C1=O` [Example 26, (2R,6S,13aS,14aR,16aS,Z)-N-(cyclopropylsulfonyl)-2-(2-(4-cyclopropylthiazol-2-yl)-7-methoxy-8-methylquinolin-4-yloxy)-6-(3,3-diethylureido)-5,16-dioxo-1,2,3,5,6,7,8,9,10,11,13a,14,14a,15,16,16a-hexadecahydrocyclopropa[e]pyrrolo[1,2-a][1,4]diazacyclopentadecine-14a-carboxamide]: the concentration for half-maximal inhibition (IC50) in test [1] and in test [2] was less than 0.01 µM in each case.

Turning to `COc1ccc2c(O[C@@H]3C[C@H]4C(=O)N[C@]5(C(=O)NS(=O)(=O)C6CC6)C[C@H]5/C=C\CCCCC[C@H](NC(=O)N5CC(F)(F)C5)C(=O)N4C3)cc(-c3nc(C4CC4)cs3)nc2c1C` [Example 33, (2R,6S,13aS,14aR,16aS,Z)-N-(cyclopropylsulfonyl)-2-(2-(4-cyclopropylthiazol-2-yl)-7-methoxy-8-methylquinolin-4-yloxy)-6-(3,3-difluoroazetidine-1-carboxamido)-5,16-dioxo-1,2,3,5,6,7,8,9,10,11,13a,14,14a,15,16,16a-hexadecahydrocyclopropa[e]pyrrolo[1,2-a][1,4]diazacyclopentadecine-14a-carboxamide], the IC50 in test [1] and in test [2] was less than 0.01 µM in each case.

Turning to `COc1ccc2c(O[C@@H]3C[C@H]4C(=O)N[C@]5(C(=O)NS(=O)(=O)C6CC6)C[C@H]5/C=C\CCCCC[C@H](NC(=O)N5CCC5)C(=O)N4C3)cc(-c3nc(C(C)C)cs3)nc2c1C` [Example 18, (2R,6S,13aS,14aR,16aS)-6-[(1-azetidinylcarbonyl)amino]-N-(cyclopropylsulfonyl)-2-{[8-methyl-2-[4-(1-methylethyl)-1,3-thiazol-2-yl]-7-(methyloxy)-4-quinolinyl]oxy}-5,16-dioxo-1,2,3,6,7,8,9,10,11,13a,14,15,16,16a-tetradecahydrocyclopropa[e]pyrrolo[1,2-a][1,4]diazacyclopentadecine-14a(5H)-carboxamide], the IC50 in test [1] and in test [2] was less than 0.01 µM in each case.

For `COc1ccc2c(O[C@@H]3C[C@H]4C(=O)N[C@]5(C(=O)NS(=O)(=O)C6CC6)C[C@H]5/C=C\CCCCC[C@H](NC(=O)N5CCCC5)C(=O)N4C3)cc(-c3nc(C(C)C)cs3)nc2c1C` [Example 15, (2R,6S,13aS,14aR,16aS)-N-(cyclopropylsulfonyl)-2-{[8-methyl-2-[4-(1-methylethyl)-1,3-thiazol-2-yl]-7-(methyloxy)-4-quinolinyl]oxy}-5,16-dioxo-6-[(1-pyrrolidinylcarbonyl)amino]-1,2,3,6,7,8,9,10,11,13a,14,15,16,16a-tetradecahydrocyclopropa[e]pyrrolo[1,2-a][1,4]diazacyclopentadecine-14a(5H)-carboxamide], the IC50 in test [1] and in test [2] was less than 0.01 µM throughout.

Regarding `COCCN(C)C(=O)N[C@H]1CCCCC/C=C\[C@@H]2C[C@@]2(C(=O)NS(=O)(=O)C2CC2)NC(=O)[C@@H]2C[C@@H](Oc3cc(-c4nc(C5CC5)cs4)nc4c(Cl)c(OC)ccc34)CN2C1=O` [Example 28, (2R,6S,13aS,14aR,16aS)-2-{[8-chloro-2-(4-cyclopropyl-1,3-thiazol-2-yl)-7-(methyloxy)-4-quinolinyl]oxy}-N-(cyclopropylsulfonyl)-6-[({methyl[2-(methyloxy)ethyl]amino}carbonyl)amino]-5,16-dioxo-1,2,3,6,7,8,9,10,11,13a,14,15,16,16a-tetradecahydrocyclopropa[e]pyrrolo[1,2-a][1,4]diazacyclopentadecine-14a(5H)-carboxamide], the IC50 in test [1] and in test [2] was less than 0.01 µM in each case.

As for `COc1ccc2c(O[C@@H]3C[C@H]4C(=O)N[C@]5(C(=O)NS(=O)(=O)C6CC6)C[C@H]5/C=C\CCCCC[C@H](NC(=O)N5CCN(C6CCCC6)CC5)C(=O)N4C3)cc(-c3nc(C(C)C)cs3)nc2c1C` [Example 13, (2R,6S,13aS,14aR,16aS)-6-{[(4-cyclopentyl-1-piperazinyl)carbonyl]amino}-N-(cyclopropylsulfonyl)-2-{[8-methyl-2-[4-(1-methylethyl)-1,3-thiazol-2-yl]-7-(methyloxy)-4-quinolinyl]oxy}-5,16-dioxo-1,2,3,6,7,8,9,10,11,13a,14,15,16,16a-tetradecahydrocyclopropa[e]pyrrolo[1,2-a][1,4]diazacyclopentadecine-14a(5H)-carboxamide], the IC50 in test [1] and in test [2] was less than 0.01 µM in each case.

For the molecule `COc1ccc2c(O[C@@H]3C[C@H]4C(=O)N[C@]5(C(=O)NS(=O)(=O)C6CC6)C[C@H]5/C=C\CCCCC[C@H](NC(=O)N(C(C)C)C(C)C)C(=O)N4C3)cc(-c3nc(C4CC4)cs3)nc2c1C` [Example 8, (2R,6S,13aS,14aR,16aS)-6-({[bis(1-methylethyl)amino]carbonyl}amino)-N-(cyclopropylsulfonyl)-2-{[2-(4-cyclopropyl-1,3-thiazol-2-yl)-8-methyl-7-(methyloxy)-4-quinolinyl]oxy}-5,16-dioxo-1,2,3,6,7,8,9,10,11,13a,14,15,16,16a-tetradecahydrocyclopropa[e]pyrrolo[1,2-a][1,4]diazacyclopentadecine-14a(5H)-carboxamide], the IC50 in test [1] and in test [2] was less than 0.01 µM each time.

Take `COc1ccc2c(O[C@@H]3C[C@H]4C(=O)N[C@]5(C(=O)NS(=O)(=O)C6CC6)C[C@H]5/C=C\CCCCC[C@H](NC(=O)Nc5ccccc5)C(=O)N4C3)cc(-c3nc(C(C)C)cs3)nc2c1C` [Example 1, (2R,6S,13aS,14aR,16aS)-N-(cyclopropylsulfonyl)-2-{[8-methyl-2-[4-(1-methylethyl)-1,3-thiazol-2-yl]-7-(methyloxy)-4-quinolinyl]oxy}-5,16-dioxo-6-{[(phenylamino)carbonyl]amino}-1,2,3,6,7,8,9,10,11,13a,14,15,16,16a-tetradecahydrocyclopropa[e]pyrrolo[1,2-a][1,4]diazacyclopentadecine-14a(5H)-carboxamide]: the IC50 in test [1] and in test [2] was less than 0.01 µM throughout.
